From patent US20040180879A1, “Novel method of treating vasomotor symptoms” (priority 2002, published 2004)
Entries after “also recorded” stand apart in the source; their conditions may differ.

Assays:
[1] = system: morphine-dependent rat model (MD model) of hot flush; assay: morphine-dependent naloxone-induced flush (MD model) of hot flush, tail skin temperature; format: in vivo; conditions: for effect of the combination with 5-HT2a receptor antagonist on abating naloxone-induced flush: MDL-100907 0.01 mg/kg sc + desipramine 1 mg/kg or venlafaxine 10 mg/kg sc; for effect on MDL-100907-induced pre-naloxone flush (words): given sc 40 min prior to naloxone, after MDL-100907 0.01 mg/kg (55 min prior), desipramine 1 mg/kg; for effect on MDL-100907-induced pre-naloxone flush (words) / abatement of 5-HT2a receptor antagonist-induced pre-naloxone flush: venlafaxine 10 mg/kg, 15 min pre-naloxone; for abatement of 5-HT2a receptor antagonist-induced pre-naloxone flush: given sc after MDL-100907 (0.01 mg/kg), desipramine 1.0 mg/kg, compared to MDL treated animals
[2] = desipramine 300-500 mg/day; fluoxetine 20 mg/day; cited from earlier work

COc1cc(CC(C)N)c(OC)cc1I (centres unmarked) [DOI]
effect of 5-HT2a receptor agonist on MDL-100907-induced flush ([1]; DOI 0.3 mg/kg sc, 15 min prior to MDL-100907 (0.01 and 0.1 mg/kg)): block; also recorded: abated; also recorded: abatement

COc1cccc(C(O)C2CCN(CCc3ccc(F)cc3)CC2)c1OC (stereo not drawn) [MDL-100907, (+)-α-(2,3-dimethoxyphenyl)-1-[2-(4-fluorophenyl)ethyl]-4-piperidinemethanol]
effect of the combination with 5-HT2a receptor antagonist on abating naloxone-induced flush ([1]; 15 min post-naloxone, listed as MDL-100902): enhances desipramine's effect on abating naloxone-induced flush; also recorded: enhances venlafaxine's effect on a naloxone-induced flush | effect of 5-HT2a receptor antagonist on DOI alleviation of naloxone-induced flush ([1]; MDL-100907 (0.01 and 0.1 mg/kg sc) after DOI 0.3 mg/kg sc, maximal flush, 15 min post-naloxone): reverse the efficacy of the 5-HT2a agonist in abating the naloxone-induced flush; also recorded: reversed the DOI alleviation of the naloxone-induced flush | effect on tail skin temperature (TST) prior to naloxone (5-HT2a antagonist-induced flush) ([1]; MDL-100907 alone, 0.01 mg/kg sc, 55 min prior to naloxone, 0.01 mg/kg): induced hot flush; also recorded: induced a significant increase in TST | effect on naloxone-induced hot flush ([1]; MDL-100907 alone, 0.01 mg/kg sc, post-naloxone): enhanced the naloxone-induced hot flush

CNCCCN1c2ccccc2CCc2ccccc21 [desipramine]
side effects of high doses alone [2]: can induce vomiting, nausea, sweating and flushes | effect of the combination with 5-HT2a receptor antagonist on abating naloxone-induced flush ([1]; 15 min post-naloxone): efficacy can be enhanced | abatement of naloxone-induced flush on co-administration with 5-HT2a receptor antagonist ([1]; desipramine 1.0 mg/kg sc + MDL-100907 0.01 mg/kg sc, 15 min post-naloxone): 80% | abatement of naloxone-induced hot flush ([1]; desipramine alone, approximate ED50 (1.0 mg/kg sc), ovariectomized morphine-dependent rats): 50% | effect on MDL-100907-induced pre-naloxone flush (words) [1]: abates an MDL-100907-induced flush | effect on MDL-100907-induced pre-naloxone flush (words) ([1]; listed as Desipramine): reversed | abatement of 5-HT2a receptor antagonist-induced pre-naloxone flush [1]: 75%

CNCCC(Oc1ccc(C(F)(F)F)cc1)c1ccccc1 (centres unmarked) [fluoxetine]
side effects of high doses alone [2]: can induce vomiting, nausea, sweating and flushes

COc1ccc(C(CN(C)C)C2(O)CCCCC2)cc1 (centres unmarked) [venlafaxine]
effect of the combination with 5-HT2a receptor antagonist on abating naloxone-induced flush ([1]; 15 min post-naloxone): enhanced abatement of a naloxone-induced flush; also recorded: can enhance this effect | effect on MDL-100907-induced pre-naloxone flush (words) [1]: abates an MDL-100907-induced flush | effect on MDL-100907-induced pre-naloxone flush (words) ([1]; listed as Venlafaxine): reversed | abatement of 5-HT2a receptor antagonist-induced pre-naloxone flush [1]: 60%
